Experimental data reported in article PMC12302228 (RSC Medicinal Chemistry, 2025).
In brackets after ≈: the same amount, converted by molar mass. Read-outs that look alike come from different tables or passages of the source.

Tests used:
[1] = system: MCF7; assay: Antiproliferative activity, SRB assay; format: cell-based, human; details: mean ± SEM
[2] = system: M21; assay: Antiproliferative activity, SRB assay; format: cell-based, human; details: mean ± SEM
[3] = system: HT-29; assay: Antiproliferative activity, SRB assay; format: cell-based, human; details: mean ± SEM
[4] = system: THP-1; assay: Antiproliferative activity, MTT assay; format: cell-based, human; details: mean ± SEM
[5] = system: MOLM-13 cells; assay: Differentiation of AML cells, CD11b/CD14 flow cytometry; format: cell-based, human; details: 120 h at 2-fold IC50
[6] = system: HT-1080; assay: Antiproliferative activity, SRB assay; format: cell-based, human; details: read-out: IC50 HT-1080; 48 h of treatment; mean ± SEM
[7] = system: MOLM-13; assay: Antiproliferative activity, MTT assay; format: cell-based, human; details: read-out: IC50 MOLM-13; 48 h of treatment; mean ± SEM
[8] = system: HL-60; assay: Antiproliferative activity, MTT assay; format: cell-based, human; details: mean ± SEM
[9] = system: histone H2AX; assay: H2AX phosphorylation, immunofluorescence in M21 cells; format: cell-based, human; details: 24 h at 2-fold IC50
[10] = physchem; details: ultrapure water, 37 °C, kinetic from dmso stock
[11] = target: human DHODH (Homo sapiens, UniProt Q02127); assay: Human DHODH colorimetric; format: biochemical
[12] = Metabolic stability in liver microsomes; format: in vitro ADME, mouse; details: for half-life at 4 µM / microsomal CLint at 4 µM: mouse, liver microsomes, pH 7.4; for Clearance category MLM: ranked by CLint
[13] = Metabolic stability in liver microsomes; format: in vitro ADME; details: rat, pH 7.4
[14] = Metabolic stability in liver microsomes; format: in vitro ADME; details: human, pH 7.4
[15] = system: THP-1 cells; assay: Differentiation of AML cells, CD11b/CD14 flow cytometry; format: cell-based, human; details: 120 h
[16] = Homo sapiens, MCF7, 48 h, read-out: IC50 MCF7, 48 h of treatment
[17] = Homo sapiens, M21, 48 h, read-out: IC50 M21, 48 h of treatment
[18] = Homo sapiens, HT-29, 48 h, read-out: IC50 HT-29, 48 h of treatment
[19] = read-out: IC50 MCF7, 48 h of treatment
[20] = read-out: IC50 M21, 48 h of treatment
[21] = read-out: IC50 HT-29, 48 h of treatment
[22] = read-out: IC50 THP-1, 48 h of treatment
[23] = read-out: IC50 HL-60, 48 h of treatment
[24] = Homo sapiens, HL-60, 48 h, read-out: IC50 HL-60, 48 h of treatment

human DHODH, sequence (Q02127 whole entry): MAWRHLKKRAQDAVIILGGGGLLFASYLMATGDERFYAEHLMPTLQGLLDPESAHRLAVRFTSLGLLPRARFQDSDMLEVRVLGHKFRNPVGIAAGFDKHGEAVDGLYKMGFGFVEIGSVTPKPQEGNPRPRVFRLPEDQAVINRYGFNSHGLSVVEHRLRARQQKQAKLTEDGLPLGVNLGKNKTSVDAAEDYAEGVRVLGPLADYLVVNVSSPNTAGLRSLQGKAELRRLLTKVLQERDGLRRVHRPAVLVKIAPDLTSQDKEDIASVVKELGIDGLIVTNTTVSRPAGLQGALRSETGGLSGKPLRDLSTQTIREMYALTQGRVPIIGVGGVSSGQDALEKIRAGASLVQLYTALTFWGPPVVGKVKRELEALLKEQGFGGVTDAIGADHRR

SMILES	IC50 [1, 16] [µM]	IC50 [3, 18] [µM]	IC50 [1, 19] [µM]	IC50 [3, 21] [µM]	IC50 [6] [µM]	IC50 [7] [µM]	IC50 [4, 22] [µM]	IC50 [8, 23] [µM]	solubility at 24 h [10] [µg/mL]	IC50 [8, 24] [µM]	IC50 [11] [µM]	half-life at 4 µM [12] [h]	microsomal CLint at 4 µM [12] [µL/min/mg]	half-life at 4 µM [13] [h]	microsomal CLint at 4 µM [13] [µL/min/mg]	IC50 [2, 17] [µM]	CD11b expression, share of the cell population [5] [%]	IC50 [2, 20] [µM]	Phosphorylation of H2AX into γH2AX (γH2AX foci) [9]	Clearance category MLM [12]	also measured
Cc1c(-c2ccc(-c3ccccc3F)cc2)nc2ccc(F)cc2c1C(=O)O [Brequinar, reference compound]	3.8 ± 0.9	0.69 ± 0.07	–	–	–	–	–	–	–	–	–	–	–	–	–	0.46 ± 0.05	34	–	–	–	IC50 ([4]; Homo sapiens, THP-1, 48 h, read-out: IC50 THP-1, 48 h of treatment): 0.17 ± 0.04 µM
CCNC(=O)Nc1ccc(S(=O)(=O)Oc2cccnc2C(C)C)cc1.Cl [Compound 21, 2-Isopropylpyridin-3-yl 4-(3-ethylureido)benzenesulfonate hydrochloride]	24 ± 3	8 ± 0.3	–	–	–	–	6 ± 2	–	188 ± 1	50 ± 10	0.012	0.95 ± 0.0667	25 ± 2	2.5 ± 0.5	11 ± 2	11 ± 1	26	–	promote the phosphorylation of H2AX into γH2AX	medium (medium clearance category for MLM (13.1 < CLint < 71.1))	CD11b and CD14 positivity, share of the cell population [15]: 57%; half-life at 4 µM [14]: 1.48 ± 0.0333 h; microsomal CLint at 4 µM [14]: 15.7 ± 0.3 µL/min/mg

Now from value to compound, other results behind:

IC50 [1, 16] [µM]	IC50 [3, 18] [µM]	IC50 [1, 19] [µM]	IC50 [3, 21] [µM]	IC50 [6] [µM]	IC50 [7] [µM]	IC50 [4, 22] [µM]	IC50 [8, 23] [µM]	solubility at 24 h [10] [µg/mL]	IC50 [8, 24] [µM]	IC50 [11] [µM]	half-life at 4 µM [12] [h]	microsomal CLint at 4 µM [12] [µL/min/mg]	half-life at 4 µM [13] [h]	microsomal CLint at 4 µM [13] [µL/min/mg]	SMILES	IC50 [2, 17] [µM]	CD11b expression, share of the cell population [5] [%]	IC50 [2, 20] [µM]	Phosphorylation of H2AX into γH2AX (γH2AX foci) [9]	Clearance category MLM [12]	also measured
–	–	11 ± 1	10.6 ± 0.9	1.4 ± 0.1	0.9 ± 0.3	3.8 ± 0.6	25 ± 4	57 ± 3 (≈ 127 µM)	–	–	–	–	–	–	CCNC(=O)Nc1ccc(S(=O)(=O)Oc2cccnc2I)cc1 [Compound 2, 2-Iodopyridin-3-yl 4-(3-ethylureido)benzenesulfonate]	–	–	13 ± 2	promote the phosphorylation of H2AX into γH2AX	–	–
–	–	19 ± 2	8.4 ± 0.7	1.2 ± 0.2	0.8 ± 0.2	1.5 ± 0.3	29 ± 6	40 ± 3 (≈ 110 µM)	–	–	–	–	–	–	CCNC(=O)Nc1ccc(S(=O)(=O)Oc2cccnc2C(C)C)cc1 [Compound 3, 2-Isopropylpyridin-3-yl 4-(3-ethylureido)benzenesulfonate]	–	–	7 ± 1	promote the phosphorylation of H2AX into γH2AX	–	–
12 ± 1	6.8 ± 0.6	–	–	–	–	1.1 ± 0.5	–	190 ± 10	37 ± 6	0.031	1.33 ± 0.167	18 ± 2	3.17 ± 0.333	7.4 ± 0.6	CCNC(=O)Nc1ccc(S(=O)(=O)Oc2cccnc2I)cc1.Cl [Compound 20, 2-Iodopyridin-3-yl 4-(3-ethylureido)benzenesulfonate hydrochloride]	7.7 ± 0.7	38	–	promote the phosphorylation of H2AX into γH2AX	medium (medium clearance category for MLM (13.1 < CLint < 71.1))	half-life at 4 µM [14]: 3.6 ± 0.167 h; microsomal CLint at 4 µM [14]: 6.5 ± 0.3 µL/min/mg
–	–	3.8 ± 0.3	2.3 ± 0.1	1.2 ± 0.2	0.7 ± 0.2	0.9 ± 0.2	3 ± 1	154 ± 7	–	–	–	–	–	–	Cl.O=C(NCCCl)Nc1ccc(S(=O)(=O)Oc2cnccc2I)cc1 [Compound 36, 4-Iodopyridin-3-yl 4-(3-(2-chloroethyl)ureido)benzenesulfonate hydrochloride]	–	–	3.5 ± 0.4	–	–	–
